Key:
B16 melanoma = conditions: lung metastases induced by B16 melanoma, experimental animals; cited from earlier work
Lewis lung carcinoma = conditions: lung metastases induced by Lewis lung carcinoma, experimental animals; cited from earlier work
[1] = tested on: mammary adenocarcinoma cells; conditions: lung metastases induced by mammary adenocarcinoma cells, experimental animals; cited from earlier work
[2] = Measurement of unsaturated bond formation (lyase activity) using absorbance at 232 nm; format: biochemical; conditions: 0.2% heparin, measured every 10 minutes for 1 hour, FIG. 1
Method: Measurement of Unsaturated Bond Formation Using Absorbance at 232 nm:
Reactions were prepared in 1 ml quartz cuvettes. For heparinase I [Lavobacterium heparinum, Sigma, Cat. No. H2519], 3 units enzyme were added to a reaction mixture A (18 mM Tris buffer pH 7.5, 45 mM NaCl, 4 mM CaCl2, 0.01% BSA) containing 0.2% heparin. For recombinant heparanase (expressed in insect cells, see, U.S. patent application Ser. Nos. 08/922,170; 09/071,618; 09/109,386; 09/258,892 and 09/260,038 and in PCT/US98/17954 and PCT/US98/09256, all of which are incorporated herein by reference), 5 mg enzyme were added to a reaction mixture B (20 mM phosphate citrate buffer pH 5.4, 1 mM CaCl2, 1 mM NaCl and 0.01% BSA) containing 0.2% heparin. Absorbance at 232 nm was measured in a Cary 100 (Varian) spectrophotometer every 10 minutes for a period of 1 hour.
Partially purified recombinant human heparanase expressed in insect cells was examined to determine whether it is a lyase or hydrolase. A bacterial heparinase I which is a lyase was used as a control. The formation of an unsaturated bond by lyase activity as measured by 232 nm absorbance was performed as described under experimental procedures above.

Row | lyase activity: 232 nm absorbance (formation of Δ4,5 unsaturated bond of heparin) [2] | Substance | reduction of the incidence of lung metastases (B16 melanoma) [%] | reduction of the incidence of lung metastases (Lewis lung carcinoma) [%] | reduction of the incidence of lung metastases [1] [%]
1 |  | laminarin sulfate | > 90 | > 90 | > 90
2 | linear increase | heparinase I |  |  | 

— patent US20020009782A1, “Heparin and heparan sulfate derived oligosaccharides and a method for their manufacture” (priority 1999, published 2002)
